Results as given in ChEMBL document CHEMBL1144216, “Suppression of cytokine production in lipopolysaccharide-stimulated mouse macrophages by novel cationic glucosamine derivative involves down-regulation of NF-kappaB and MAPK expressions” (2008).
Active and inactive are the calls of the source. No cut-off for these calls is given here.

Tests used:
RAW264.7 [1] = assay: Inhibition of LPS-stimulated TNFalpha production in mouse RAW264.7 cells treated 1 hr before LPS challenge after 24 hrs by ELISA; format: functional, cell-based
RAW264.7 [2] = assay: Inhibition of LPS-stimulated IL6 production in mouse RAW264.7 cells treated 1 hr before LPS challenge after 24 hrs by ELISA; format: functional, cell-based
RAW264.7 [3] = assay: Inhibition of LPS-stimulated PGE2 production in mouse RAW264.7 cells treated 1 hr before LPS challenge after 24 hrs by ELISA; format: functional, cell-based
RAW264.7 [4] = assay: Inhibition of LPS-stimulated IL1-beta production in mouse RAW264.7 cells treated 1 hr before LPS challenge after 24 hrs by ELISA; format: functional, cell-based
RAW264.7 [5] = assay: Inhibition of IKK protein expression in mouse RAW264.7 cells by Western blotting; format: functional, cell-based
RAW264.7 [6] = assay: Inhibition of LPS-stimulated IL1-beta production in mouse RAW264.7 cells assessed as IL1-beta level at 50 ug/ml treated 1 hr before LPS challenge after 24 hrs by ELISA; format: functional
RAW264.7 [7] = assay: Inhibition of LPS-stimulated IL6 production in mouse RAW264.7 cells at 50 ug/ml treated 1 hr before LPS challenge after 24 hrs by ELISA; format: functional, cell-based
RAW264.7 [8] = assay: Reduction of LPS-induced NF-kappaB translocation in mouse RAW264.7 cells assessed as NF-kappaB p65 protein expression level at 40 ug/mL by Western blotting; format: functional, cell-based
RAW264.7 [9] = assay: Inhibition of LPS-stimulated p38MAPK expression in mouse RAW264.7 cells by Western blotting; format: functional, cell-based
RAW264.7 [10] = assay: Effect on level of NIK in mouse RAW264.7 cells by Western blotting; format: functional, cell-based
RAW264.7 [11] = assay: Inhibition of LPS-stimulated TNFalpha production in mouse RAW264.7 cells at 50 ug/ml treated 1 hr before LPS challenge after 24 hrs by ELISA; format: functional
RAW264.7 [12] = assay: Inhibition of LPS-stimulated PGE2 production in mouse RAW264.7 cells at 50 ug/ml treated 1 hr before LPS challenge after 24 hrs by ELISA; format: functional
RAW264.7 [13] = assay: Inhibition of LPS-induced NF-kappaB promoter activity in mouse RAW264.7 cells by luciferase reporter assay; format: functional, cell-based
RAW264.7 [14] = assay: Inhibition of LPS-stimulated TNFalpha production in mouse RAW264.7 cells at 60 ug/mL by Western blot analysis; format: functional, cell-based
RAW264.7 [15] = assay: Increase in IkappaB protein expression in mouse RAW264.7 cells by Western blotting relative to control; format: functional, cell-based
RAW264.7 [16] = assay: Inhibition of LPS-stimulated JNK level in mouse RAW264.7 cells by Western blotting; format: functional, cell-based
RAW264.7 [17] = assay: Inhibition of LPS-stimulated IL1-beta production in mouse RAW264.7 cells at 60 ug/mL by Western blot analysis; format: functional, cell-based
RAW264.7 [18] = assay: Reduction of LPS-induced NF-kappaB translocation in mouse RAW264.7 cells assessed as NF-kappaB p65 protein expression level at 60 ug/mL by Western blotting; format: functional, cell-based
RAW264.7 [19] = assay: Inhibition of LPS-stimulated ERK expression in mouse RAW264.7 cells by Western blotting; format: functional, cell-based
RAW264.7 [20] = assay: Inhibition of LPS-stimulated IL6 production in mouse RAW264.7 cells at 60 ug/mL by Western blot analysis; format: functional, cell-based

Row | SMILES | Activity (RAW264.7 [1]) | Activity (RAW264.7 [2]) | Activity (RAW264.7 [3]) | Activity (RAW264.7 [4]) | Activity (RAW264.7 [5]) | Activity (RAW264.7 [6]) [pg/mL] | Activity (RAW264.7 [7]) | Activity (RAW264.7 [8]) | Activity (RAW264.7 [9]) | Activity (RAW264.7 [10]) | inhibition at 50 µg/mL (RAW264.7 [11]) [%] | inhibition at 50 µg/mL (RAW264.7 [12]) [%] | Activity (RAW264.7 [13]) | Activity (RAW264.7 [14]) | Activity (RAW264.7 [15]) | Activity (RAW264.7 [16]) | Activity (RAW264.7 [17]) | Activity (RAW264.7 [18]) | Activity (RAW264.7 [19]) | Activity (RAW264.7 [20])
1 | N[C@H]1C(O)O[C@H](CO)[C@@H](O)[C@@H]1O (stereo not given in full) | Dose-dependent effect | Dose-dependent effect | Dose-dependent effect | Dose-dependent effect | – | – | – | – | – | – | – | – | – | – | – | – | – | – | – | –
2 | C[N+](C)(C)CC(O)CN[C@@H]1[C@@H](O)[C@H](O)[C@@H](CO)O[C@H]1O.[Cl-] (stereo not given in full) | – | – | – | – | Active | 100 | Active | Active | Dose-dependent effect | inactive | 45 | 50 | Dose-dependent effect | Active | Active | Dose-dependent effect | Active | Active | inactive | Active
